Legend:
[1] = test system: Phospho-PKB in U87MG cells; assay: Detection of phospho-PKB in U87MG cells by ELISA; assay type: cell-based; details: Homo sapiens, U-87 MG; assay not given; follows the PI3K/DNA-PK/phospho-PKB U87MG methods
Experimental: U87MG cells (human glioblastoma, ATCC No. HTB-14) are trypsinized, counted in a CASY cell counter (Schärffe systems, Göttingen, Germany), diluted in fresh complete DMEM high glucose medium to load, per well, 150 μL cell suspension containing 4×10^4 cells, and test plates incubated for 18 hours. In parallel, 50 μL of coating antibody, at the desired concentration in PBS/O is loaded in each well of the ELISA plates, and plates are kept for 2 hours at room temperature. This ELISA assays is performed in black flat-bottom 96-well plates (Microtest™, Falcon Becton-Dickinson, Ref.: 353941) sealed with Plate Sealers (Costar-Corning, Ref: 3095). Medium in plates is discarded and replaced by complete DMEM high glucose medium containing either 0.1% DMSO or 0.1% inhibitor at titers (7) between […] in DMSO. After 30 minutes of contact, the medium is quickly removed by aspiration, plates are then placed on ice and immediately cells lyzed with 70 μL of Lysis buffer. In parallel, the 96 wells plates prepared with the coating antibody (1/250 diluted (in PBS/O) Anti-Akt1 C-20, goat, Santa-Cruz-1618, Santa Cruz Biotechnology, Inc., Santa Cruz, Calif., USA) are washed 3 times for 1 minute with PBS/O containing 0.05% Tween 20 and 0.1% Top-Blocks (derivative of gelatine that blocks unspecific binding sites on surfaces; Sigma-Aldrich, Fluka, Buchs, Switzerland, Ref.: 37766), and remaining protein binding sites blocked to prevent non-specific interactions with 200 μL of PBS containing 3% Top Block®, for 2 hours at room temperature. Well content is replaced with 50 μL of samples from treated cells, and plates are incubated for 3 hours at 4° C. The ELISA assays are always done in parallel with the following controls, in 6 replicates: U87MG (untreated control) or Lysis buffer alone (LB). […] The luminescence is read immediately on a Top-Count NXT (Packard Bioscience) luminometer.

[2] = test system: dimethylnitrosamine induced liver fibrosis; details: cited from earlier work
[3] = given therapeutically to rat, 3 weeks treatment

Row | IC50 [1] [nM] | Compound | side effects ([2]; during the 3 weeks treatment) | inhibited extracellular matrix deposition [2, 3] [%] | prevented death rate [2, 3] [%]
1 | 106 | OC1CCC(Nc2ccc3ncc(-c4ccc(-n5cccn5)cc4)n3n2)CC1 (stereo not drawn) [Example 1.5, 4-[3-(4-Pyrazol-1-yl-phenyl)-imidazo[1,2-b]pyridazin-6-ylamino]-cyclohexanol] | – | – | –
2 | 666 | OC1CCC(Nc2ccc3ncc(-c4ccc(-n5cncn5)cc4)n3n2)CC1 (stereo not drawn) [Example 1.8, 4-[3-(4-[1,2,4]Triazol-1-yl-phenyl)-imidazo[1,2-b]pyridazin-6-ylamino]-cyclohexanol] | – | – | –
3 | 753 | OCC1CCC(Nc2ccc3ncc(-c4ccc(-n5cccn5)cc4)n3n2)CC1 (stereo not drawn) [Example 1.9, {4-[3-(4-Pyrazol-1-yl-phenyl)-imidazo[1,2-b]pyridazin-6-ylamino]-cyclohexyl}-methanol] | – | – | –
4 | – | c1ccc(-c2cc(-c3cn[nH]c3-c3ccccn3)ccn2)cc1 [GW6604] | no obvious side effects | 60 | 40

Reference: US20100041662A1, “Heterocyclic compounds as antiinflammatory agents” (priority 2006, published 2010)
